Experimental data: ChEMBL document CHEMBL4004803, “Syntheses and antibacterial activity of soluble 9-bromo substituted indolizinoquinoline-5,12-dione derivatives” (Eur J Med Chem, 2017)
Converted amounts (≈) assume the structure as drawn.

Tests used:
Assay type in all cases: functional
Staphylococcus aureus [1] = test: Antibacterial activity against […] Staphylococcus aureus ATCC 25923 after 20 to 24 hrs by two-fold microdilution method
Staphylococcus aureus [2] = test: Antibacterial activity against methicillin-resistant Staphylococcus aureus ATCC 43300 after 20 to 24 hrs by two-fold microdilution method
[3] = system: Staphylococcus haemolyticus; test: Antibacterial activity against Staphylococcus haemolyticus CICC 10373 after 20 to 24 hrs by two-fold microdilution method
Streptococcus pyogenes = test: Antibacterial activity against Streptococcus pyogenes ATCC 19615 after 20 to 24 hrs by two-fold microdilution method
Streptococcus pneumoniae = test: Antibacterial activity against Streptococcus pneumoniae ATCC 6305 after 20 to 24 hrs by two-fold microdilution method
Enterococcus faecalis = test: Antibacterial activity against Enterococcus faecalis ATCC 29212 after 20 to 24 hrs by two-fold microdilution method
Staphylococcus aureus [4] = test: Antibacterial activity against methicillin-resistant Staphylococcus aureus 202045 clinical isolate after 20 to 24 hrs by two-fold microdilution method
Staphylococcus aureus [5] = test: Antibacterial activity against methicillin-resistant Staphylococcus aureus 219236 clinical isolate after 20 to 24 hrs by two-fold microdilution method
Staphylococcus aureus [6] = test: Antibacterial activity against methicillin-resistant Staphylococcus aureus clinical isolate after 20 to 24 hrs by two-fold microdilution method
Staphylococcus aureus [7] = test: Antibacterial activity against methicillin-resistant Staphylococcus aureus 103054 clinical isolate after 20 to 24 hrs by two-fold microdilution method
Staphylococcus aureus [8] = test: Antibacterial activity against methicillin-resistant Staphylococcus aureus 111625 clinical isolate after 20 to 24 hrs by two-fold microdilution method
Staphylococcus aureus [9] = test: Antibacterial activity against methicillin-resistant Staphylococcus aureus 110328-1 clinical isolate after 20 to 24 hrs by two-fold microdilution method
Staphylococcus aureus [10] = test: Antibacterial activity against methicillin-resistant Staphylococcus aureus 120827 clinical isolate after 20 to 24 hrs by two-fold microdilution method
Staphylococcus aureus [11] = test: Antibacterial activity against methicillin-resistant Staphylococcus aureus 10281-2 clinical isolate after 20 to 24 hrs by two-fold microdilution method
Staphylococcus aureus [12] = test: Antibacterial activity against methicillin-resistant Staphylococcus aureus 102849 clinical isolate after 20 to 24 hrs by two-fold microdilution method
Staphylococcus aureus [13] = test: Antibacterial activity against methicillin-resistant Staphylococcus aureus GLH15 clinical isolate after 20 to 24 hrs by two-fold microdilution method
Staphylococcus aureus [14] = test: Antibacterial activity against methicillin-resistant Staphylococcus aureus 121969 clinical isolate after 20 to 24 hrs by two-fold microdilution method
Staphylococcus aureus [15] = test: Antibacterial activity against methicillin-resistant Staphylococcus aureus 123152 clinical isolate after 20 to 24 hrs by two-fold microdilution method
Staphylococcus aureus [16] = test: Antibacterial activity against methicillin-resistant Staphylococcus aureus 19950 clinical isolate after 20 to 24 hrs by two-fold microdilution method
Staphylococcus aureus [17] = test: Antibacterial activity against methicillin-resistant Staphylococcus aureus 12308 clinical isolate after 20 to 24 hrs by two-fold microdilution method
Staphylococcus aureus [18] = test: Antibacterial activity against methicillin-resistant Staphylococcus aureus 221022 clinical isolate after 20 to 24 hrs by two-fold microdilution method
Staphylococcus aureus [19] = test: Antibacterial activity against methicillin-resistant Staphylococcus aureus 30116-1 clinical isolate after 20 to 24 hrs by two-fold microdilution method
Staphylococcus aureus [20] = test: Antibacterial activity against methicillin-resistant Staphylococcus aureus 316031 clinical isolate after 20 to 24 hrs by two-fold microdilution method
Staphylococcus aureus [21] = test: Antibacterial activity against methicillin-resistant Staphylococcus aureus 502025 clinical isolate after 20 to 24 hrs by two-fold microdilution method
Staphylococcus aureus [22] = test: Antibacterial activity against methicillin-resistant Staphylococcus aureus 519238 clinical isolate after 20 to 24 hrs by two-fold microdilution method
Staphylococcus aureus [23] = test: Antibacterial activity against methicillin-resistant Staphylococcus aureus 530231 clinical isolate after 20 to 24 hrs by two-fold microdilution method
Staphylococcus aureus [24] = test: Antibacterial activity against methicillin-resistant Staphylococcus aureus 614019 clinical isolate after 20 to 24 hrs by two-fold microdilution method
Staphylococcus aureus [25] = test: Antibacterial activity against methicillin-resistant Staphylococcus aureus 1012029 clinical isolate after 20 to 24 hrs by two-fold microdilution method
Staphylococcus aureus [26] = test: Antibacterial activity against methicillin-resistant Staphylococcus aureus 112106 clinical isolate after 20 to 24 hrs by two-fold microdilution method
Staphylococcus aureus [27] = test: Antibacterial activity against methicillin-resistant Staphylococcus aureus 724244 clinical isolate after 20 to 24 hrs by two-fold microdilution method
Staphylococcus aureus [28] = test: Antibacterial activity against methicillin-resistant Staphylococcus aureus 814039 clinical isolate after 20 to 24 hrs by two-fold microdilution method
Staphylococcus aureus [29] = test: Antibacterial activity against methicillin-resistant Staphylococcus aureus 822030 clinical isolate after 20 to 24 hrs by two-fold microdilution method
Staphylococcus aureus [30] = test: Antibacterial activity against methicillin-resistant Staphylococcus aureus 831024 clinical isolate after 20 to 24 hrs by two-fold microdilution method
Staphylococcus aureus [31] = test: Antibacterial activity against methicillin-resistant Staphylococcus aureus 912014 clinical isolate after 20 to 24 hrs by two-fold microdilution method
Staphylococcus aureus [32] = test: Antibacterial activity against methicillin-resistant Staphylococcus aureus 919205 clinical isolate after 20 to 24 hrs by two-fold microdilution method
Staphylococcus aureus [33] = test: Antibacterial activity against methicillin-resistant Staphylococcus aureus 1023043 clinical isolate after 20 to 24 hrs by two-fold microdilution method
Staphylococcus aureus [34] = test: Antibacterial activity against methicillin-resistant Staphylococcus aureus 1024010 clinical isolate after 20 to 24 hrs by two-fold microdilution method
Staphylococcus aureus [35] = test: Antibacterial activity against methicillin-resistant Staphylococcus aureus 1212221 clinical isolate after 20 to 24 hrs by two-fold microdilution method
Staphylococcus aureus [36] = test: Antibacterial activity against methicillin-resistant Staphylococcus aureus 1103006 clinical isolate after 20 to 24 hrs by two-fold microdilution method
Staphylococcus aureus [37] = test: Antibacterial activity against methicillin-resistant Staphylococcus aureus 1108204 clinical isolate after 20 to 24 hrs by two-fold microdilution method
Staphylococcus aureus [38] = test: Antibacterial activity against methicillin-resistant Staphylococcus aureus 1111047-1 clinical isolate after 20 to 24 hrs by two-fold microdilution method
Staphylococcus aureus [39] = test: Antibacterial activity against methicillin-resistant Staphylococcus aureus 1113041 clinical isolate after 20 to 24 hrs by two-fold microdilution method
Staphylococcus aureus [40] = test: Antibacterial activity against methicillin-resistant Staphylococcus aureus 111423 clinical isolate after 20 to 24 hrs by two-fold microdilution method
Staphylococcus aureus [41] = test: Antibacterial activity against methicillin-resistant Staphylococcus aureus 1214023 clinical isolate after 20 to 24 hrs by two-fold microdilution method
Staphylococcus aureus [42] = test: Antibacterial activity against methicillin-resistant Staphylococcus aureus 109016 clinical isolate after 20 to 24 hrs by two-fold microdilution method
Staphylococcus aureus [43] = test: Antibacterial activity against methicillin-resistant Staphylococcus aureus 112047 clinical isolate after 20 to 24 hrs by two-fold microdilution method
Staphylococcus aureus [44] = test: Antibacterial activity against methicillin-resistant Staphylococcus aureus 131215 clinical isolate after 20 to 24 hrs by two-fold microdilution method

O=C1c2cccnc2C(=O)c2c1c(C(=O)OCCCCCCN1CCCCC1)c1ccc(Br)cn21
MIC (Staphylococcus aureus [1]): 0.031 µg/mL (≈ 0.0576 µM) | MIC (Staphylococcus aureus [2]): 0.063 µg/mL (≈ 0.117 µM) | MIC [3]: 0.125 µg/mL (≈ 0.232 µM) | MIC (Streptococcus pyogenes): 2 µg/mL (≈ 3.71 µM) | MIC (Streptococcus pneumoniae): 0.5 µg/mL (≈ 0.929 µM) | MIC (Enterococcus faecalis): 0.125 µg/mL (≈ 0.232 µM) | MIC (Staphylococcus aureus [4]): ≤ 0.0078 µg/mL | MIC (Staphylococcus aureus [5]): ≤ 0.0078 µg/mL | MIC50 (Staphylococcus aureus [6]): 0.063 µg/mL (≈ 0.117 µM) | MIC90 (Staphylococcus aureus [6]): 0.125 µg/mL (≈ 0.232 µM) | MIC (Staphylococcus aureus [7]): 0.031 µg/mL (≈ 0.0576 µM) | MIC (Staphylococcus aureus [8]): 0.063 µg/mL (≈ 0.117 µM) | MIC (Staphylococcus aureus [9]): 0.125 µg/mL (≈ 0.232 µM) | MIC (Staphylococcus aureus [10]): 0.031 µg/mL (≈ 0.0576 µM) | MIC (Staphylococcus aureus [11]): 0.063 µg/mL (≈ 0.117 µM) | MIC (Staphylococcus aureus [12]): 0.063 µg/mL (≈ 0.117 µM) | MIC (Staphylococcus aureus [13]): 0.063 µg/mL (≈ 0.117 µM) | MIC (Staphylococcus aureus [14]): 0.063 µg/mL (≈ 0.117 µM) | MIC (Staphylococcus aureus [15]): 0.125 µg/mL (≈ 0.232 µM) | MIC (Staphylococcus aureus [16]): 0.063 µg/mL (≈ 0.117 µM) | MIC (Staphylococcus aureus [17]): 0.063 µg/mL (≈ 0.117 µM) | MIC (Staphylococcus aureus [18]): 0.125 µg/mL (≈ 0.232 µM) | MIC (Staphylococcus aureus [19]): 0.063 µg/mL (≈ 0.117 µM) | MIC (Staphylococcus aureus [20]): 0.125 µg/mL (≈ 0.232 µM) | MIC (Staphylococcus aureus [21]): 0.063 µg/mL (≈ 0.117 µM) | MIC (Staphylococcus aureus [22]): 0.125 µg/mL (≈ 0.232 µM) | MIC (Staphylococcus aureus [23]): 0.125 µg/mL (≈ 0.232 µM) | MIC (Staphylococcus aureus [24]): 0.063 µg/mL (≈ 0.117 µM) | MIC (Staphylococcus aureus [25]): 0.063 µg/mL (≈ 0.117 µM) | MIC (Staphylococcus aureus [26]): 0.063 µg/mL (≈ 0.117 µM) | MIC (Staphylococcus aureus [27]): 0.031 µg/mL (≈ 0.0576 µM) | MIC (Staphylococcus aureus [28]): 0.25 µg/mL (≈ 0.464 µM) | MIC (Staphylococcus aureus [29]): 0.125 µg/mL (≈ 0.232 µM) | MIC (Staphylococcus aureus [30]): 0.063 µg/mL (≈ 0.117 µM) | MIC (Staphylococcus aureus [31]): 0.063 µg/mL (≈ 0.117 µM) | MIC (Staphylococcus aureus [32]): 0.063 µg/mL (≈ 0.117 µM) | MIC (Staphylococcus aureus [33]): 0.125 µg/mL (≈ 0.232 µM) | MIC (Staphylococcus aureus [34]): 0.063 µg/mL (≈ 0.117 µM) | MIC (Staphylococcus aureus [35]): 0.031 µg/mL (≈ 0.0576 µM) | MIC (Staphylococcus aureus [36]): > 16 µg/mL | MIC (Staphylococcus aureus [37]): 0.063 µg/mL (≈ 0.117 µM) | MIC (Staphylococcus aureus [38]): 0.25 µg/mL (≈ 0.464 µM) | MIC (Staphylococcus aureus [39]): 0.031 µg/mL (≈ 0.0576 µM) | MIC (Staphylococcus aureus [40]): > 16 µg/mL | MIC (Staphylococcus aureus [41]): ≤ 0.0078 µg/mL | MIC (Staphylococcus aureus [42]): 0.031 µg/mL (≈ 0.0576 µM) | MIC (Staphylococcus aureus [43]): 0.031 µg/mL (≈ 0.0576 µM) | MIC (Staphylococcus aureus [44]): 0.031 µg/mL (≈ 0.0576 µM)
